≈ marks a conversion by molar mass, not a printed value.
Experiments:
E. coli ATCC25922 strain = assay: MIC 50, broth micro-dilution, wild-type Escherichia coli; format: cell-based; conditions: Escherichia coli, ATCC25922, 18 h, MH2, 18 h
Excerpt: (§1) 3.1 Against E. coli Strains
(§2) Tested reference compounds. Amikacin sulfate (Cat. No. 01693, Chem-Impex), Gentamicin sulfate (Cat. No. G4918, Sigma Aldrich).
(§3) Microbial strains. E. coli ATCC 25922, E. coli ATCC 25922/pET-9b(+), E. coli ATCC 25922/pAT21-1, E. coli ATCC 25922/pBluescript::AAC(6′)-Ie/APH(2″)-Ia, E. coli ATCC 25922/pBlue_lpp_aacC3_rrnC, E. coli ATCC 25922/pSET152.
(§4) Culture media and equipment. BBL™ Mueller Hinton Broth 2 (Lot. BCBW1143, Cat. No. 70192, Sigma); Kanamycin A (Cat. No. A1493, AppliChem); 96-well deep well plate, 1 mL (Cat. No. 0030506.200, Eppendorf); Plate lids (Cat. No. 0030131.525, Eppendorf); 96-well plate, F-bottom (Cat. No. 781602, Brand; Incubator, Infors Multitron Pro); Laminar flow (Heraeus KS12); UV/VIS meter (Eppendorf BioPhotometer Plus); Platereader (Tecan Sunrise).
(§5) Compound preparation. Compounds were prepared in MH2 media at a concentration of 5 mM and stored at 4° C. For testing, solutions of 128 μM were prepared in MH2. Out of these working solutions, 400 μL was transferred to wells in the first column of 96-well deep well plates. Each compound was transferred in triplicate. Plates were previously filled with 200 μL of MH2 media in all wells except for the wells in the first column. After compound and antibiotic addition, the compounds were serial two-fold diluted by transferring 200 μL from the first to the second column, then from the second to the third column and so on. Finally, 200 μL was removed from the last column.
(§6) Inoculum preparation. Microorganisms used were all revived from 20% glycerol (40% v/v glycerol in water was diluted with MH2) storage at −80° C. by inoculating them in 5 mL MH2. inoculums of E. coli containing a plasmid were selected for by adding 50 μg/mL KanaA. The Inoculums were grown to an optical density (measured by UV/Vis spectroscopy) of 0.6-0.8 at 600 nm. Out of these suspensions, actual inoculums were prepared by diluting them to an optical density (OD) of 0.1 in MH2 media. From these inoculums, 200 μL was transferred to each well, resulting in a final compound concentration range of 64 μM-31.3 nM. All plates were incubated at 900 rpm and 70% rH for 18 h at 37° C.
MIC determination. After 18 h of growth, 200 μL was transferred to a 96-well F-bottom plate. The optical density was determined by a plate reader at 600 nm, with 10 s shaking before reading. Triplicate measurements were averaged, and a growth curve was plotted in Microsoft Excel. The first column in which the growth reached half the value of maximum growth was determined as the MIC50 value for that particular compound.
MIC50. The MIC50 of a compound was assigned at which the bacterial growth reached half the value of maximum growth.

E. coli (APH(3′)IIIa) = assay: MIC 50, broth micro-dilution, E. coli expressing APH(3′)IIIa; format: cell-based, Escherichia coli; conditions: Escherichia coli, ATCC25922, ATCC25922 harboring plasmid encoding APH(3′)IIIa
Protocol: (§7) Plasmid transformation. Approximately 500 ng of the pET-9b(+) (Cat. No. 69432-3, Merck), pAT21-1 (provided by Prof. Dr. Patrice Courvalin, M.D., Pasteur Institute, France; prepared according to Trieu-Cuot et. al, Mol. Gen. Genet. 198(2), 348 (1985)), pBluescript::AAC(6′)-Ie/APH(2″)-Ia (provided by Prof. Dr. Sergei Vakulenko, M.D., University of Notre Dame, Ind., USA; prepared according to S. B. Vakulenko et. al., J. Biol. Chem. 287 (52), 43262 (2012)), pBlue_lpp_aacC3_rrnC and pSET152 (Cat. No. PVT3395, Life Science Market; prepared according to Bierman et al., Gene 116 (1), 43 (1992)) plasmids, encoding APH(3′)-Ia (SEQ ID NO:2), APH(3′)-IIIa (SEQ ID NO:3), AAC(6′)Ie-APH(2″)-Ia (SEQ ID NO:4), AAC(3)-III (SEQ ID NO:1), and AAC(3)-IV (SEQ ID NO:5) respectively, were individually incubated in a vial of competent cells for 15 min on ice. The cells were subsequently heated to 42° C. for 90 s, and cooled on ice for 1 min. After addition of 900 μL LB, the cells were incubated for 1 h at 37° C. and 200 rpm. Cells were plated on LB-agar supplemented with 50 μg/mL KanaA and incubated for 18 h at 37° C. The next day, a single colony was inoculated in 5 mL LB supplemented with 50 μg/mL and grown for 18 h at 37° C. and 200 rpm. A 200 μL sample of each culture was diluted with 200 μL of 40% v/v glycerol in water, and stored at −80° C. The plasmid was purified from the remaining culture using the Plasmid Miniprep kit. Plasmid DNA was investigated by Eurofins Genomics (Germany) to confirm the identity of the aminoglycoside resistance genes.
as §1, §2, §3, §4, §5, §6
(§8) MIC determination. After 18 h of growth, 200 μL was transferred to a 96-well F-bottom plate. The optical density was determined by a plate reader at 600 nm, with 10 s shaking before reading. Triplicate measurements were averaged, and a growth curve was plotted in Microsoft Excel. […]

E. coli (AAC(3)IV) = assay: MIC 50, broth micro-dilution, E. coli expressing AAC(3)IV; format: cell-based, Escherichia coli; conditions: Escherichia coli, ATCC25922, ATCC25922 harboring plasmid encoding AAC(3)IV
Protocol: as §7, §1, §2, §3, §4, §5, §6, §8

E. coli (AAC(3)III) = assay: MIC 50, broth micro-dilution, E. coli expressing AAC(3)III; format: cell-based, Escherichia coli; conditions: Escherichia coli, ATCC25922, ATCC25922 harboring plasmid encoding AAC(3)III
Excerpt: Cloning resistant enzymes. An Escherichia coli codon optimized gene encoding AAC(3)-III (GenBank acc.nr. X55652.1; SEQ ID NO:1), including a promoter and terminator sequence, was synthesized by Integrated DNA Technologies, Belgium. The synthesized gene and pBluescript II KS(+) plasmid were digested using the restriction enzymes SacI and SalI, and purified from a 1% TBE-agarose gel using the illustra Gel Band purification kit. The purified linear plasmid and T4 DNA ligase were used to ligate aac(3)-III under control of the constitutive lipoprotein Ipp promoter and ribosomal RNA rrnC terminator, resulting in pBlue_Ipp_aacC3_rrnC.
as §7, §1, §2, §3, §4, §5
Inoculum preparation. Microorganisms used were all revived from 20% glycerol (40% v/v glycerol in water was diluted with MH2) storage at −80° C. by inoculating them in 5 mL MH2. inoculums of E. coli containing a plasmid were selected for by adding 50 μg/mL KanaA.

E. coli (APH(3′)Ia) = assay: MIC 50, broth micro-dilution, E. coli expressing APH(3′)Ia; format: cell-based, Escherichia coli; conditions: Escherichia coli, ATCC25922, ATCC25922 harboring plasmid encoding APH(3′)Ia
Protocol: as §7, §1, §2, §3, §4, §5, §6, §8

[1] = system: E. coli (AAC(6′)Ie-APH(2″)Ia); assay: MIC 50, broth micro-dilution, E. coli expressing AAC(6′)Ie-APH(2″)Ia; format: cell-based, Escherichia coli; conditions: Escherichia coli, ATCC25922, ATCC25922 harboring plasmid encoding AAC(6′)Ie-APH(2″)Ia
Protocol: as §7, §1, §2, §3, §4, §5, §6, §8

With `N=C(N)NC1[C@@H](O)C(OC2[C@@H](F)[C@H](O[C@H]3OC(CN)[C@@H](O)CC3N)C(N)C[C@H]2NC(=O)[C@@H](F)CCN)O[C@H](CO)[C@H]1O` (stereo partly drawn) [ABX5034, Tobra-(AFB)-F-Gua] as the compound, how does the MIC50 (E. coli ATCC25922 strain) read?
The MIC50 was 1 µM (≈ 0.615 µg/mL).

What about the MIC50 (E. coli (APH(3′)IIIa)) of the same compound?
Its MIC50 is 0.5 to 1 µM (≈ 0.307 to 0.615 µg/mL).

And the MIC50 (E. coli (AAC(3)IV))?
Its MIC50 is 2 to 4 µM (≈ 1.23 to 2.46 µg/mL).

What about the MIC50 (E. coli (AAC(3)III)) of the same compound?
Its MIC50 is 0.5 to 1 µM (≈ 0.307 to 0.615 µg/mL).

What about the MIC50 (E. coli (APH(3′)Ia)) of the same compound?
The MIC50 was 1 µM (≈ 0.615 µg/mL).

What about the MIC50 [1] of the same compound?
The MIC50 was 1 µM (≈ 0.615 µg/mL).

From patent publication US20220127297A1, “Novel Antibacterial 3"-Derivatives Of 4,6-Disubstituted 2,5-Dideoxystreptamine Aminoglycoside Antibiotics” (AGILeBiotics B.V., priority 2018, published 2022)
